What all share (type): in vivo
Data set [1] relates to Sesbania exaltata. Nature of the data set: Herbicidal efficacy in United States (Table 16). The note with it: 57 days after application. From the text: (§1) Methyl 2-[[[[(4-methoxy-6-methyl-1,3,5-triazin-2-yl)amino]carbonyl]amino]sulfonyl]benzoate (Compound 1) and mixtures thereof with other compounds were applied as a spray (using a hand sprayer) to rice (either transplanted or direct seeded) in several rice growing areas in Southeast Asia and in the U.S. Tables 1-28 contain the results of these tests and clearly exemplify the utility of this invention. The details of each application are included in the appropriate table. [drawing 2]

For data set [2], the system named is Eclipta alba. Briefly: Herbicidal efficacy in United States (Table 16). The note with it: 57 days after application.
Description: as §1

Data set [3] concerns rice. Nature of the data set: Herbicidal efficacy in United States (Table 16). Particulars: 57 days after application.
Description: as §1

In data set [4] the test system is rice. Briefly: Effects on rice growth in Thailand, phytotoxicity (Table 2). The note with it: scale 0-10.
Description: as §1

As for `COC(=O)c1ccccc1S(=O)(=O)NC(=O)Nc1nc(C)nc(OC)n1` [Compound 1, Methyl 2-[[[[(4-methoxy-6-methyl-1,3,5-triazin-2-yl)amino]carbonyl]amino]sulfonyl]benzoate], the “% CONTROL OR INJURY SE” value in data set [1] (7 GAI/HA) was 97%; in data set [1] (14 GAI/HA), 98%; in data set [1] (21 GAI/HA) it was 98%. The “% CONTROL OR INJURY EA” value in data set [2] (7 GAI/HA) is 97%; in data set [2] (14 GAI/HA), 98%; in data set [2] (21 GAI/HA) it was 98%. The “% CONTROL OR INJURY RICE” value in data set [3] (7 GAI/HA) is on record as 3%; in data set [3] (14 GAI/HA), 10%; in data set [3] (21 GAI/HA), 5%. Further, the PHYTOTOXICITY in data set [4] (applied 7 DAS, 3 GAI/HA) is recorded as 1.67; in data set [4] (applied 7 DAS, 6 GAI/HA), 1.33; in data set [4] (applied 14 DAS, 3 GAI/HA), 1.0; in data set [4] (applied 14 DAS, 6 GAI/HA) it was 1.0; in data set [4] (applied 21 DAS, 3 GAI/HA), 0; in data set [4] (applied 21 DAS, 6 GAI/HA), 0. For the same compound, the PHYTOTOXICITY in data set [4] (applied 28 DAS, 3 GAI/HA) came to 0; in data set [4] (applied 28 DAS, 6 GAI/HA), 0.

(Values after patent EP0377642B1, “HERBICIDES FOR WEED CONTROL IN RICE” (E.I. DU PONT DE NEMOURS AND COMPANY, priority 1987, dated 1989).)
